Data taken from ChEMBL document CHEMBL3232729, “Marsupellins A-F, ent-longipinane-type sesquiterpenoids from the Chinese liverwort Marsupella alpine with acetylcholinesterase inhibitory activity” (J Nat Prod, 2014).

What follows are compounds tested against Acetylcholinesterase (Homo sapiens) (UniProt P22303).
Chain of Acetylcholinesterase (Homo sapiens) (P22303 whole entry): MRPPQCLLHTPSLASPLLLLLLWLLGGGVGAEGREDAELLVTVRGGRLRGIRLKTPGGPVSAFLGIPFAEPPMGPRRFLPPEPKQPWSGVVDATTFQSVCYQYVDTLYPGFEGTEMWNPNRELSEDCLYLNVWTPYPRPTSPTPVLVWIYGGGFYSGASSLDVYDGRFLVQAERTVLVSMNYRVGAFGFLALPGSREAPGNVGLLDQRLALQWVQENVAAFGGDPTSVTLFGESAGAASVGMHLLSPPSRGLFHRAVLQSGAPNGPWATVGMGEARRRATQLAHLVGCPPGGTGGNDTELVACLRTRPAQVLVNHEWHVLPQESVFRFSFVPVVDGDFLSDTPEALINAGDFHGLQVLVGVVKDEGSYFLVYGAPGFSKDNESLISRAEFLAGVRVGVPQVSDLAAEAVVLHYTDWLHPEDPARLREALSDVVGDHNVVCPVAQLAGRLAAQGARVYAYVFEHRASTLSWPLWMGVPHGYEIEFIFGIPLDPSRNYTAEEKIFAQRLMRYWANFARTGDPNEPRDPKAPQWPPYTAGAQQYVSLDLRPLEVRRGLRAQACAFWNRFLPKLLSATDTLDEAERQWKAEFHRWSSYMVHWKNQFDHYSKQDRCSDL
Description: Inhibition of AChE (unknown origin) assessed as minimum inhibitory concentration by bioautographic TLC assay

With C=C1C(=O)C[C@H]2[C@H]3[C@@H]1C2(COC(C)=O)CCCC3(C)C as the compound, how does the MIC read?
The MIC was 4 µg.

How did the MIC turn out when C[C@@H]1C(=O)C[C@H]2[C@H]3[C@@H]1C2(C)CCCC3(C)C was run?
Its MIC is 4 µg.

For C[C@H]1[C@@H]2[C@@H]3[C@@H]4C[C@@]1(O)OC[C@@]24CCCC3(C)C, which MIC is on record?
The MIC was 0.8 µg.

For CC(=O)OC[C@]12CCCC(C)(C)[C@@H]3[C@H]1[C@@]1(CO1)C(=O)C[C@@H]32, which MIC is on record?
Its MIC is 4 µg.

With C=C1OC(=O)C[C@H]2[C@H]3[C@@H]1[C@]2(COC(C)=O)CCCC3(C)C as the compound, how does the MIC read?
The MIC was 4 µg.

With C=C1[C@H](O)C[C@H]2[C@H]3[C@@H]1C2(COC(C)=O)CCCC3(C)C as the compound, how does the MIC read?
Its MIC is 4 µg.

Which MIC does the source give for C=C1[C@@H](O)[C@H](O)[C@H]2[C@H]3[C@@H]1C2(C)CCCC3(C)C here?
Its MIC is 4 µg.

With C[C@H]1[C@@H]2[C@@H]3[C@@H]4C[C@@]1(O)OC(=O)[C@@]24CCCC3(C)C as the compound, how does the MIC read?
The MIC was 0.6 µg.

Which MIC does the source give for CC(=O)OC[C@]12CCCC(C)(C)[C@@H]3[C@H]1[C@]1(CO1)C(=O)C[C@@H]32 here?
Its MIC is 4 µg.
